IC50 and Ki data for 35 compounds are collected here from patent US11319306B2, “Compositions and methods for treating neurodegenerative diseases” (Azevan Pharmaceuticals, Inc., priority 2014, dated 2022).

This assay addresses T1, human V1a receptor (Homo sapiens, UniProt P37288).
T1 construct: host or cells: CHO cells (hV1a cell line)
Nature of the assay: Human vasopressin V1a receptor binding assay (3H-AVP competition, hV1a CHO cells). The conditions noted are these: 3H-AVP competition, CHO cells expressing human V1a; for IC50: read-out: V1a Binding Affinity IC50; for Ki: read-out: V1a Ki. As for the experimental part: Human vasopression V1a receptor binding assay. A cell line expressing the human V1a receptor in CHO cells (henceforth referred to as the hV1a cell line) was obtained from Dr. Michael Brownstein, NIMH, Bethesda, Md., USA. The hV1a cDNA sequence is described by Thibonnier et al., Journal of Biological Chemistry, 269, 3304-3310 (1994), and the expression method was the same as described by Morel et al. (1992). The hV1a cell line was grown in alpha-MEM with 10% fetal bovine serum and 250 ug/ml G418 (Gibco, Grand Island, N.Y., USA). For competitive binding assay, hV1a cells were plated into 6-well culture plate at 1:10 dilution from a confluency flask, and maintained in culture for at least two days. Culture medium was then removed, cells were washed with 2 ml binding buffer (25 mM Hepes, 0.25% BSA, 1×DMEM, PH=7.0). To each well, 990 μl binding buffer containing InM 3H-AVP was added, and followed by 10 μl series diluted Example compounds dissolved in DMSO. […] 100 nM cold AVP (Sigma) was used to assess non-specific binding. Cells were incubated for 45 minutes at 37° C., assay mixture was removed and each well was washed three times with PBS (pH=7.4). 1 ml 2% SDS was added per well and plates were let sit for 30 minutes. The whole content in a well was transferred to a scintillation vial. Each well was rinsed with 0.5 ml PBS which was then added to the corresponding vial. Scintillation fluid (Ecoscint, National Diagnostics, Atlanta, Ga.) was then added at 3 ml per vial. Samples were counted in a liquid scintillation counter (Beckman LS3801). IC50 values were calculated by Prism Curve fitting software.
All of the alkanedioic esters and amides exemplified in the foregoing examples dissolved in DMSO were tested in this assay. Binding curves were generated according to methods described by Thibonnier et al. (1994). [^3H]-AVP was added to the hV1a cell cultures followed by 10-fold dilutions of each test compound.

T1 sequence (P37288 whole entry): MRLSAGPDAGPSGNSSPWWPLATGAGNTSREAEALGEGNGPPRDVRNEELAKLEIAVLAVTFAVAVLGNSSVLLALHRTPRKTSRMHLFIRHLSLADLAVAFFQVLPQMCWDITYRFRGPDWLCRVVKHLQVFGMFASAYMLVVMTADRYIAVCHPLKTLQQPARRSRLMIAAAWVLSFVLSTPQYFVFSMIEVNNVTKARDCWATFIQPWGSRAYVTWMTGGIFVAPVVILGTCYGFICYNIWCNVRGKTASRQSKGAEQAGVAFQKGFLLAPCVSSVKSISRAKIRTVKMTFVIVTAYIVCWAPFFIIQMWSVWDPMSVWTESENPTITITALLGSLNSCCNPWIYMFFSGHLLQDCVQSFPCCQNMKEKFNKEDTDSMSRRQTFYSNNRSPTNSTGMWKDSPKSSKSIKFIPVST

On to `O=C(NCc1cccc(C(F)(F)F)c1)C(CCC(=O)N1CCN(C2CCCCC2)CC1)N1C(=O)C(N2C(=O)OCC2c2ccccc2)C1C=Cc1ccccc1` (stereo not shown) [Example 139], for which the IC50 was 9.5 nM and the inhibitory constant (Ki) was found to be 5.84 nM.
For the compound `O=C(NCc1cc(F)cc(F)c1)[C@H](CCC(=O)N1CCN(C2CCCCC2)CC1)N1C(=O)[C@@H](N2C(=O)OC[C@@H]2c2ccccc2)[C@H]1/C=C/c1ccccc1` [Example 185], the Ki was 0.82 nM.
Consider `COc1cccc(C(C)NC(=O)C(CCC(=O)N2CCN(C3CCCCC3)CC2)N2C(=O)C(N3C(=O)OCC3c3ccccc3)C2C=Cc2ccccc2)c1` (stereo not shown) [Example 203], for which the concentration for half-maximal inhibition (IC50) is 2.46 nM and the Ki worked out at 1.5 nM.
`CCN1CCC[C@H]1CNC(=O)CC[C@@H](C(=O)N[C@@H]1CCCc2ccccc21)N1C(=O)[C@@H](N2C(=O)OC[C@@H]2c2ccccc2)[C@H]1/C=C/c1ccccc1` [Example 221AI]: the concentration for half-maximal inhibition (IC50) was roughly 50 nM.
For `O=C(NC1(c2cccc(F)c2)CCCC1)C(CCC(=O)N1CCN(C2CCCCC2)CC1)N1C(=O)C(N2C(=O)OCC2c2ccccc2)C1C=Cc1ccccc1` (stereo not shown) [Example 221AM], the Ki was found to be 2.7 nM.
Regarding `CC(C)(C)OC(=O)NC1CCN(C2CCN(C(=O)CCC(C(=O)NC3(c4ccccc4)CCCC3)N3C(=O)C(N4C(=O)OCC4c4ccccc4)C3C=Cc3ccccc3)CC2)C1` (stereo not shown) [Example 221AX], the 50% inhibitory concentration (IC50) was 83 nM and the inhibition constant Ki was determined as 51 nM.
Consider `Cc1cccc(CN(C)C(=O)C(CCC(=O)N2CCN(C3CCCCC3)CC2)N2C(=O)C(N3C(=O)OCC3c3ccccc3)C2C=Cc2ccccc2)c1` (stereo not shown) [Example 221A], for which the IC50 came out at 2.71 nM and the Ki is 1.66 nM.
Take `CCN1CCN(C(=O)CCC(C(=O)NC2CCCc3ccccc32)N2C(=O)C(N3C(=O)OCC3c3ccccc3)C2C=Cc2ccccc2)CC1` (stereo not shown) [Example 221BD]: the 50% inhibitory concentration (IC50) was determined as 2.7 nM and the inhibitory constant (Ki) worked out at 1.66 nM.
On the same counts, the results for `O=C(NC1CCCc2ccccc21)C(CCC(=O)N1CCN(CCCO)CC1)N1C(=O)C(N2C(=O)OCC2c2ccccc2)C1C=Cc1ccccc1` (stereo not shown) [Example 221BI] are 56 nM and 35 nM.
On the same counts, the results for `CN(Cc1cccc(Cl)c1Cl)C(=O)C(CCC(=O)N1CCN(C2CCCCC2)CC1)N1C(=O)C(N2C(=O)OCC2c2ccccc2)C1C=Cc1ccccc1` (stereo not shown) [Example 221B] are 0.59 nM and 0.36 nM.
On the same counts, the results for `CN(Cc1cccc(Cl)c1)C(=O)C(CCC(=O)N1CCN(C2CCCCC2)CC1)N1C(=O)C(N2C(=O)OCC2c2ccccc2)C1C=Cc1ccccc1` (stereo not shown) [Example 221C] are 3 nM and 1.84 nM.
For `CN(Cc1cccc(Br)c1)C(=O)C(CCC(=O)N1CCN(C2CCCCC2)CC1)N1C(=O)C(N2C(=O)OCC2c2ccccc2)C1C=Cc1ccccc1` (stereo not shown) [Example 221D], the IC50 came out at 2.41 nM and the Ki stood at 1.48 nM.
On to `CN(Cc1cc(Cl)cc(Cl)c1)C(=O)C(CCC(=O)N1CCN(C2CCCCC2)CC1)N1C(=O)C(N2C(=O)OCC2c2ccccc2)C1C=Cc1ccccc1` (stereo not shown) [Example 221E], for which the IC50 stood at 20.2 nM and the inhibition constant Ki came to 12.4 nM.
On to `C[C@@H](NC(=O)[C@H](CCC(=O)N1CCN(C2CCCCC2)CC1)N1C(=O)[C@@H](N2C(=O)OC[C@@H]2c2ccccc2)[C@H]1/C=C/c1ccccc1)c1cccc(C(F)(F)F)c1` [Example 221F], for which the IC50 turned out to be 1.7 nM and the Ki amounted to 1.04 nM.
In the same order, the values of `O=C(NC1(c2ccccc2)CCCCC1)C(CCC(=O)N1CCN(C2CCCCC2)CC1)N1C(=O)C(N2C(=O)OCC2c2ccccc2)C1C=Cc1ccccc1` (stereo not shown) [Example 221G] are 1.5 nM and 0.93 nM.
Regarding `O=C(NC1(c2ccccc2F)CCCC1)C(CCC(=O)N1CCN(C2CCCCC2)CC1)N1C(=O)C(N2C(=O)OCC2c2ccccc2)C1C=Cc1ccccc1` (stereo not shown) [Example 221H], the half-maximal inhibitory concentration (IC50) was determined as 4 nM and the Ki amounted to 2.5 nM.
`O=C(NC1(c2ccc(F)cc2)CCCC1)C(CCC(=O)N1CCN(C2CCCCC2)CC1)N1C(=O)C(N2C(=O)OCC2c2ccccc2)C1C=Cc1ccccc1` (stereo not shown) [Example 221I]: the IC50 came to 12 nM and the Ki stood at 7.4 nM.
In the same order, the values of `O=C(CCC(C(=O)N1CCc2ccccc2C1)N1C(=O)C(N2C(=O)OCC2c2ccccc2)C1C=Cc1ccccc1)N1CCN(C2CCCCC2)CC1` (stereo not shown) [Example 221O] are 8.4 nM and 5.1 nM.
On the same counts, the results for `O=C(NC(CCO)c1ccccc1)C(CCC(=O)N1CCN(C2CCCCC2)CC1)N1C(=O)C(N2C(=O)OCC2c2ccccc2)C1C=Cc1ccccc1` (stereo not shown) [Example 221Q] are 18.1 nM and 11.1 nM.
With `O=C(NC1CCc2ccccc21)C(CCC(=O)N1CCN(C2CCCCC2)CC1)N1C(=O)C(N2C(=O)OCC2c2ccccc2)C1C=Cc1ccccc1` (stereo not shown) [Example 221S], the IC50 worked out at 5.03 nM and the Ki came to 3.08 nM.
On the same counts, the results for `O=C(CCC(C(=O)NC1CCCc2ccccc21)N1C(=O)C(N2C(=O)OCC2c2ccccc2)C1C=Cc1ccccc1)NCCN1CCCCC1` (stereo not shown) [Example 221X] are 11.6 nM and 7.2 nM.
Consider `O=C(NC1CCCc2ccccc21)C(CCC(=O)N1CCCC1CN1CCCC1)N1C(=O)C(N2C(=O)OCC2c2ccccc2)C1C=Cc1ccccc1` (stereo not shown) [Example 221Y], for which the IC50 was 7.6 nM and the inhibition constant Ki amounted to 4.7 nM.
On to `O=C(NCc1cccc(C(F)(F)F)c1)C(CCC(=O)N1CCN(C2CCCCC2)CC1)N1C(=O)C(N2C(=O)OCC2c2ccccc2)C1C(Cl)=Cc1ccccc1` (stereo not shown) [Example 226], for which the IC50 was 0.49 nM and the inhibitory constant (Ki) is 0.3 nM.
On the same counts, the results for `CCN1CCN(C(=O)CCC(C(=O)NCc2cccc(C(F)(F)F)c2)N2C(=O)C(N3C(=O)OCC3c3ccccc3)C2C(Cl)=Cc2ccccc2)CC1` (stereo not shown) [Example 228] are 13.6 nM and 8.35 nM.
On the same counts, the results for `CCCCN1CCN(C(=O)CCC(C(=O)NCc2cccc(C(F)(F)F)c2)N2C(=O)C(N3C(=O)OCC3c3ccccc3)C2C(Cl)=Cc2ccccc2)CC1` (stereo not shown) [Example 229] are 1.53 nM and 0.94 nM.
In the same order, the values of `CCCCN1CCN(C(=O)CCC(C(=O)NCc2cccc(C(F)(F)F)c2)N2C(=O)C(N3C(=O)OCC3c3ccccc3)C2C(Br)=Cc2ccccc2)CC1` (stereo not shown) [Example 230L] are 12.7 nM and 7.8 nM.
With `CC(C)N1CCN(C(=O)CCC(C(=O)NCc2cccc(C(F)(F)F)c2)N2C(=O)C(N3C(=O)OCC3c3ccccc3)C2C(Cl)=Cc2ccccc2)CC1` (stereo not shown) [Example 230], the IC50 came out at 7.07 nM and the Ki amounted to 4.33 nM.
In the same order, the values of `O=C(C(COCc1ccccc1)N1C(=O)C(N2C(=O)OCC2c2ccccc2)C1C=Cc1ccccc1)N1CCN(C2CCCCC2)CC1` (stereo not shown) [Example 232D] are 2.04 nM and 1.25 nM.
In the same order, the values of `O=C([C@@H](COCc1ccccc1)N1C(=O)[C@@H](N2C(=O)OC[C@@H]2c2ccccc2)[C@H]1/C=C/c1ccccc1)N1CCC(CN2CCCCC2)CC1` [Example 232E] are 0.28 nM and 0.17 nM.
On the same counts, the results for `O=C(C(COCc1ccccc1)N1C(=O)C(N2C(=O)OCC2c2ccccc2)C1C=Cc1ccccc1)N1CCC(N2CCCCC2)CC1` (stereo not shown) [Example 232] are 1.37 nM and 0.84 nM.
Consider `O=C(C(COCc1ccccc1)N1C(=O)C(N2C(=O)OCC2c2ccccc2)C1C=Cc1ccccc1)N1CCC(CCN2CCCCC2)CC1` (stereo not shown) [Example 233], for which the IC50 amounted to 0.56 nM and the Ki worked out at 0.34 nM.
On the same counts, the results for `O=C([C@@H](CSCc1ccccc1)N1C(=O)[C@@H](N2C(=O)OC[C@@H]2c2ccccc2)[C@H]1/C=C/c1ccccc1)N1CCC(CCN2CCCCC2)CC1` [Example 238, (2S)-(Benzylthiomethyl)-2-[3(S)-(4(S)-phenyloxazolidin-2-on-3-yl)-4(R)-(2-styryl)azetidin-2-on-1-yl]acetic acid N-[4-[2-(piperid-1-yl)ethyl]piperidin-1-yl]amide] are 0.11 nM and 0.07 nM.
On the same counts, the results for `CCN1CCN(C(=O)CC[C@@H](C(=O)NC2(c3ccccc3)CCCC2)N2C(=O)[C@@H](N3C(=O)OC[C@@H]3c3ccccc3)[C@H]2/C=C/c2ccccc2)CC1` [Example 239] are 6.6 nM and 4 nM.
On the same counts, the results for `O=C(NC1(c2ccccc2)CCCC1)[C@H](CCC(=O)N1CCN(Cc2ccccc2)CC1)N1C(=O)[C@@H](N2C(=O)OC[C@@H]2c2ccccc2)[C@H]1/C=C/c1ccccc1` [Example 240] are 25 nM and 15.5 nM.
On to `O=C(N[C@@H]1CCCc2ccccc21)[C@H](CCC(=O)N1CCN(C2CCCC2)CC1)N1C(=O)[C@@H](N2C(=O)OC[C@@H]2c2ccccc2)[C@H]1/C=C/c1ccccc1` [Example 241], for which the half-maximal inhibitory concentration (IC50) was found to be 2 nM and the Ki was 1.24 nM.
